This passage reports IC50 and viability, T/C results from PubChem BioAssay AID1963862 (Molecular Pharmacology Branch, DTP, NCI, 2024).

The subject of this experiment is KRAS patient-derived spheroids with HUVEC/MSC, viability. In words: Anticancer human tumor 941728-121-R-J1-PDC patient-derived lung adenocarcinoma cell line growth inhibition [KRAS2]. The note with it: for viability, T/C: stronger effect = lower value. Put shortly:
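KRAS-mutant tumor cells were grown as spheroids with HUVEC endothelial cells and human MSCs as stroma. Targeted agents were tested alone and with KRAS pathway inhibitors. Doses started at or near clinical Cmax, or 10 microM, descending half-log.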

Setting [1] is: curve of first compound, second compound 0.1 µM.
The mark [2] stands for this setting: curve of first compound, second compound 0.316 µM.
The mark [3] stands for this setting: curve of first compound, second compound 1 µM.
Where [4] appears, read: curve of first compound, second compound 3.16 µM.
[5] abbreviates: curve of first compound, second compound 10 µM.
Setting [6] is: second compound 0.1 µM, first compound 0.0316 µM.
[7] abbreviates: second compound 0.1 µM, first compound 0.1 µM.
Where [8] appears, read: second compound 0.1 µM, first compound 0.316 µM.
Where [9] appears, read: second compound 0.1 µM, first compound 1 µM.
Where [10] appears, read: second compound 0.1 µM, first compound 3.16 µM.
[11] abbreviates: second compound 0.1 µM, first compound 10 µM.
[12] abbreviates: second compound 0.316 µM, first compound 0.0316 µM.
The mark [13] stands for this setting: second compound 0.316 µM, first compound 0.1 µM.
The mark [14] stands for this setting: second compound 0.316 µM, first compound 0.316 µM.
[15] abbreviates: second compound 0.316 µM, first compound 1 µM.
The mark [16] stands for this setting: second compound 0.316 µM, first compound 3.16 µM.
The mark [17] stands for this setting: second compound 0.316 µM, first compound 10 µM.
Setting [18] is: second compound 1 µM, first compound 0.0316 µM.
Setting [19] is: second compound 1 µM, first compound 0.1 µM.
The mark [20] stands for this setting: second compound 1 µM, first compound 0.316 µM.
The mark [21] stands for this setting: second compound 1 µM, first compound 1 µM.
Setting [22] is: second compound 1 µM, first compound 3.16 µM.
Setting [23] is: second compound 1 µM, first compound 10 µM.
Setting [24] is: second compound 3.16 µM, first compound 0.0316 µM.
[25] abbreviates: second compound 3.16 µM, first compound 0.1 µM.
Where [26] appears, read: second compound 3.16 µM, first compound 0.316 µM.
The mark [27] stands for this setting: second compound 3.16 µM, first compound 1 µM.
The mark [28] stands for this setting: second compound 3.16 µM, first compound 3.16 µM.
The mark [29] stands for this setting: second compound 3.16 µM, first compound 10 µM.
Setting [30] is: second compound 10 µM, first compound 0.0316 µM.
[31] abbreviates: second compound 10 µM, first compound 0.1 µM.
[32] abbreviates: second compound 10 µM, first compound 0.316 µM.
The mark [33] stands for this setting: second compound 10 µM, first compound 1 µM.
[34] abbreviates: second compound 10 µM, first compound 3.16 µM.
[35] abbreviates: second compound 10 µM, first compound 10 µM.

pIC50: −log10 of the molar value.
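Also: spheroids exposed to agents for seven days before readout.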

The term pIC50 denotes −log10 of the IC50, conventionally taken in molar units. By viability, T/C is commonly meant the ratio of treated to control. For the compound `COc1cc(Nc2ncc3c(n2)-c2ccc(Cl)cc2C(c2c(F)cccc2OC)=NC3)ccc1C(=O)O` + CNCc1ccccc1-c1csc(C(C)Nc2nc(C)nc3cc(OC)c(OC)cc23)c1, the negative-log IC50 (pIC50) is > 7.50 under setting [1]; > 7.50 under setting [2]; > 7.50 under setting [3]; > 7.50 under setting [4]; > 7.50 under setting [5]. The viability, T/C reads like this: under setting [6], 48.4%; under setting [7], 47.5%; under setting [8], 37.5%; under setting [9], 45.4%; under setting [10], 47.6%; under setting [11], 34.7%. Moreover, the viability, T/C under setting [12] was 44.2%; the viability, T/C under setting [13] was 36%; the viability, T/C under setting [14] is 32.6%; the viability, T/C under setting [15] is 32.2%; the viability, T/C under setting [16] is 36.4%; the viability, T/C under setting [17] is 33.6%. The viability, T/C reads like this: under setting [18], 31.4%; under setting [19], 28.4%; under setting [20], 27.3%; under setting [21], 27.5%; under setting [22], 25.6%; under setting [23], 15.1%. Also, the viability, T/C is, setting by setting: under setting [24], 0.4%; under setting [25], 0.28%; under setting [26], 0.18%; under setting [27], 0.33%; under setting [28], 0.26%; under setting [29], 4.13%. Also, the viability, T/C under setting [30] is 0.15%; the viability, T/C under setting [31] is 0.22%; the viability, T/C under setting [32] was 0.1%; the viability, T/C under setting [33] was 0.1%; the viability, T/C under setting [34] was 0.11%; the viability, T/C under setting [35] was 0.5%.
For `COc1cc(Nc2ncc3c(n2)-c2ccc(Cl)cc2C(c2c(F)cccc2OC)=NC3)ccc1C(=O)O` + COc1cc2nc(C)nc(NC(C)c3cc(N)cc(C(F)(F)F)c3)c2cc1OC1CCOC1, the pIC50 is > 7.50 under setting [1]; > 7.50 under setting [2]; > 7.50 under setting [3]; > 7.50 under setting [4]; > 7.50 under setting [5]. For the same compound, the viability, T/C by setting is: under setting [6], 52.4%; under setting [7], 44.5%; under setting [8], 44.1%; under setting [9], 47.7%; under setting [10], 42.1%; under setting [11], 42.1%. Moreover, the viability, T/C under setting [12] was 41%; the viability, T/C under setting [13] was 42.3%; the viability, T/C under setting [14] was 44.1%; the viability, T/C under setting [15] is 40.2%; the viability, T/C under setting [16] was 40.7%; the viability, T/C under setting [17] was 37.3%. Moreover, the viability, T/C reads like this: under setting [18], 34.7%; under setting [19], 38%; under setting [20], 36.5%; under setting [21], 38.2%; under setting [22], 33.9%; under setting [23], 31.4%. In addition, the viability, T/C under setting [24] is 34.2%; the viability, T/C under setting [25] is 32.6%; the viability, T/C under setting [26] is 36.6%; the viability, T/C under setting [27] is 30.6%; the viability, T/C under setting [28] is 23%; the viability, T/C under setting [29] was 19.7%. In addition, the viability, T/C is, setting by setting: under setting [30], 12.4%; under setting [31], 14.3%; under setting [32], 7.81%; under setting [33], 4.39%; under setting [34], 6.63%; under setting [35], 3.43%.
With `COc1cc(Nc2ncc3c(n2)-c2ccc(Cl)cc2C(c2c(F)cccc2OC)=NC3)ccc1C(=O)O`, the viability, T/C is 63.3% [middle of 5 runs] (compound 1 µM), 55% [middle of 5 runs] (compound 3.16 µM) and 50.9% [middle of 5 runs] (compound 10 µM).
For `COC(=O)c1ccc2c(C(=Nc3ccc(N(C)C(=O)CN4CCN(C)CC4)cc3)c3ccccc3)c(O)[nH]c2c1` + C=CC(=O)N1CCN(c2nc(OCC3CCCN3C)nc3c2CCN(c2cccc4cccc(C)c24)C3)CC1CC#N, the pIC50 is, setting by setting: (curve of first compound, second compound 0.0316 µM) > 7.50; under setting [1], > 7.50; under setting [2], > 7.50; under setting [3], > 7.50; under setting [4], > 7.50. In addition, the viability, T/C is 30.6% (second compound 0.0316 µM, first compound 0.0316 µM); 26.9% (second compound 0.0316 µM, first compound 0.1 µM); 23.9% (second compound 0.0316 µM, first compound 0.316 µM); 22.5% (second compound 0.0316 µM, first compound 1 µM); 8.16% (second compound 0.0316 µM, first compound 3.16 µM); 6.26% (second compound 0.0316 µM, first compound 10 µM). Besides, the viability, T/C reads like this: under setting [6], 31.4%; under setting [7], 27%; under setting [8], 23.2%; under setting [9], 18.1%; under setting [10], 4.92%; under setting [11], 5.67%. Moreover, the viability, T/C reads like this: under setting [12], 29.8%; under setting [13], 26.9%; under setting [14], 23.7%; under setting [15], 18.1%; under setting [16], 4.34%; under setting [17], 3.09%. Moreover, the viability, T/C runs as follows: under setting [18], 24.2%; under setting [19], 23.9%; under setting [20], 23.4%; under setting [21], 13%; under setting [22], 0.56%; under setting [23], 0.29%. The viability, T/C was 0.27% under setting [24]; 0.31% under setting [25]; 0.12% under setting [26]; 0.11% under setting [27]; 0.07% under setting [28]; 0.11% under setting [29].
With `C=CC(=O)N1CCN(c2nc(=O)n(-c3c(C)ccnc3C(C)C)c3nc(-c4c(O)cccc4F)c(F)cc23)C(C)C1` (stereo unspecified), the viability, T/C (compound 0.1 µM) is 23.2% [middle of 17 runs]; the viability, T/C (compound 0.316 µM) was 22.9% [middle of 17 runs]; the viability, T/C (compound 1 µM) was 22.8% [middle of 17 runs]; the viability, T/C (compound 3.16 µM) was 27.4% [middle of 17 runs]; the viability, T/C (compound 10 µM) is 32.9% [middle of 17 runs]. Besides, the pIC50 (compound alone, run of 07/12/2021) is > 7.00; the pIC50 (compound alone, run of 07/19/2021) was > 7.00; the pIC50 (compound alone, run of 07/26/2021) was > 7.00.
